Assay results from patent US4904666A, “Pyrazolo(3,4-d)pyrimidine compounds, compositions and method of use” (Boehringer Mannheim GmbH, priority 1987, dated 1990).

System: passively sensitized strip of pulmonary parenchyma (guinea pig)
Test: inhibition of antigen-induced constriction of passively sensitized guinea pig pulmonary parenchyma strips in vitro (organ bath)
Format: cell-based, guinea pig (Pirbright-White)
Conditions: Cavia porcellus, 20 min; Superfusion; Concentration 10/μM (so in the source); test substance preincubated 20 minutes at 37° C., then ovalbumin constriction; percentage reduction of constriction amplitude vs untreated control constrictions
Excerpt: Activity of the inventive compounds was shown by the following testing in vitro. […] The method employed was as described herewith:
Pirbright-White guinea pigs were stunned by a blow to the neck and bled. The lungs were flushed largely free of blood in situ with Krebs' buffer, pH 7.4.
Then the lung was removed, cut into strips (approx. 20×4×4 mm) and the strips were passively sensitized for one hour at room temperature with a 1:50 dilution of a homologous anti-ovalbumin antiserum and then washed once with Krebs' buffer.
The antiserum had previously been produced as described by Davies et al., (Quantitative studies on anaphylaxis in guinea pigs passively sensitized with homologous antibody. Inter. Arch. Allergy 41, 648-654 (1971)) in guinea pigs of the same strain by repeated injection of ovalbumin (2×crystallized) with the addition of complete Freund's adjuvant (Until it was used, the antiserum was stored undiluted at -18° C.).
Then the lung strips were fixed singly with one end to the bottom of 10-milliliter organ baths, and with the upper end to isometric measuring devices for the recording of the constrictions of the lung strips through an amplifier on a plotter. The tenseron was adjusted to 1.2 g weight.
Then the baths were filled with Krebs' buffer and continually gassed at 37° C. with O2 (95%) and CO2 (5%).
After a 30-minute equilibration phase, histamine control spasms were produced in order to establish the reactivity of the lung specimens, washed, then the test substance was preincubated for 20 minutes at 37° C., and the ovalbumin constriction was produced.
The inhibiting action of the compounds according to the invention was expressed as percentage reduction of the constriction amplitude of the "specimens with the test substance" in proportion to the "untreated control constrictions."

Row | SMILES | inhibition at 10 µM
1 | COc1cccc(CN(c2ncnc3[nH]ncc23)C2CCCC2)c1 [Example 2d, 4-[N--(3-methoxybenzyl)-cyclopentylamino]-1H--pyrazolo[3,4-d]pyrimidine] | 36%
2 | CCOC(=O)c1cccc(CN(c2ncnc3[nH]ncc23)C2CCCC2)c1 [Example 2g, 4-[N--(3-ethoxycarbonylbenzyl)-cyclopentylamino]-1H--pyrazolo[3,4-d]pyrimidine] | 40%
3 | N#Cc1cccc(CN(c2ncnc3[nH]ncc23)C2CCCC2)c1 [Example 2i, 4-[N--(3-cyanobenzyl)-cyclopentylamino]-1H--pyrazolo[3,4-d]pyrimidine] | 35%
4 | Clc1ccc(Cl)c(CN(c2ncnc3[nH]ncc23)C2CCCC2)c1 [Example 2j, 4-[N--(2,5-dichlorobenzyl)-cyclopentylamino] -1H--pyrazolo[3,4-d]pyrimidine] | 29%
5 | Clc1ccc(CN(c2ncnc3[nH]ncc23)C2CCCC2)cc1Cl [Example 2k, 4-[N--(3,4-dichlorobenzyl)-cyclopentylamino]-1H--pyrazolo[3,4-d]pyrimidine] | 32%
6 | Cc1ccc(Cl)cc1CN(c1ncnc2[nH]ncc12)C1CCCC1 [Example 2l, 4-[N--(5-chloro-2-methylbenzyl)-cyclopentylamino]-1H--pyrazolo[3,4-d]pyrimidine] | 32%
7 | Cc1ccc(C)c(CN(c2ncnc3[nH]ncc23)C2CCCC2)c1 [Example 2n, 4-[N--(2,5-dimethylbenzyl)-cyclopentylamino]-1H--pyrazolo[3,4-d]pyrimidine] | 32%
8 | c1coc(CN(c2ncnc3[nH]ncc23)C2CCCC2)c1 [Example 2o, 4-[N--(2-furylmethyl)-cyclopentylamino]-1H--pyrazolo[3,4-d]pyrimidine] | 39%
9 | c1csc(CN(c2ncnc3[nH]ncc23)C2CCCC2)c1 [Example 2p, 4-[N--(thiophen-2-ylmethyl)-cyclopentylamino]-1H--pyrazolo[3,4-d]pyrimidine] | 37%
10 | OCC(O)Cn1ncc2c(N(Cc3cccc(C(F)(F)F)c3)C3CCCC3)ncnc21 (stereo not shown) [Example 4b, 4-[N--(3-trifluoromethylbenzyl)-cyclopentylamino]-1-(2,3-dihydroxypropyl)-1H--pyrazolo[3,4-d]pyrimidine] | 36%
